Source: patent publication US11668709B2, “System for monitoring post-translational modification of protein using bio-sensor with gap and manufacturing method for bio-sensor” (KOREA INSTITUTE OF SCIENCE AND TECHNOLOGY, priority 2018, dated 2023)

How the values were obtained:
Format in all cases: biochemical
O-GlcNAcase [1] = test: Verification Experiment 4: impedance with and without O-GlcNAcase inhibitor, third antibody (O-g Antibody); conditions: 100 μM thiamet G treated compared to untreated; tau protein 0.5-524 fg/ml; O-glycosylation site antibody
Protocol: (§1) Tau protein at a concentration of 5250 ng/mL was diluted 1/10 at various concentrations (0.5 fg/mL to 50 pg/mL) with 0.1% PBST and treated with Thiamet G treatment inhibiting O-GlcNAcase or BZX2 promoting O-GlcNAcase as needed.
(§2) The impedance Z was measured with and without the substance that inhibits O-GlcNAcase, using the system for monitoring post-translational modification of protein according to the embodiment of the present disclosure.

O-GlcNAcase [2] = test: Verification Experiment 6: impedance of tau protein with second or third antibody, with and without thiamet G; conditions: 5 pg/ml tau protein
Protocol: as §1, §2
(a) 5 pg/ml of tau protein, (b) 5 pg/ml of tau protein+second antibody (AT-8 antibody), and (c) 5 pg/ml of tau protein+third antibody (O-g Antibody) were introduced into the sensor 100, respectively, and then impedance Z was measured for PBS, Neg, Thiamet G untreated, and 100 μM of thiamet G treated samples, respectively.

O-GlcNAcase [3] = test: Verification Experiment 5: impedance with O-GlcNAcase inhibitor or promoter, second antibody (AT-8 antibody); conditions: 100 μM BZX2 treated; tau protein 0.5-500 fg/ml; AT-8 phosphorylation site antibody
Protocol: as §1
The impedance Z was measured for when treated with a substance that inhibits O-GlcNAcase; and when treated with a substance that promotes O-GlcNAcase of O-glycosylated tau protein, using the system for monitoring post-translational modification of protein according to the embodiment of the present disclosure.
A sample containing the second conjugate S2 (microbead+first antibody+tau protein) and an antibody (second antibody, AT-8 antibody) that can bind to the phosphorylation site of tau protein was introduced into the sensor 100, and impedance Z was measured for each of the following: (a) treated with 100 μM of thiamet G which is a substance that inhibits O-GlcNAcase; and (b) treated with 100 μM of BZX2 which is substance that promotes O-GloNAcase, for respective concentrations (0.5 fg/ml, 5 fg/ml, 50 fg/ml, and 500 fg/ml) of tau protein.
The impedance Z was measured from each sample when the first sample containing the second conjugate S2 was introduced into the sensor 100 and when the second sample containing the third conjugate S3 was introduced into the sensor 100.

| difference in impedance (Z1−Z3) (O-GlcNAcase [1]) | impedance Z2 measured as the second antibody (AT-8 antibody) was added (O-GlcNAcase [2]; 100 μM thiamet G treated (untreated 33.65 MΩ)) [MΩ] | impedance Z3 measured as the third antibody (O-g antibody) was added (O-GlcNAcase [2]; 100 μM thiamet G treated (untreated 38.27 MΩ)) [MΩ] | Molecule | impedance difference (Z1−Z2) (O-GlcNAcase [3]) |
| --- | --- | --- | --- | --- |
| greater | 37.65 | 35.0 | CCN=C1N[C@@H]2[C@@H](O)[C@H](O)[C@@H](CO)O[C@@H]2S1 [thiamet G] | – |
| – | – | – | BZX2 | increases as the concentration of tau protein increases |
